According to patent US12497642B2, “Incorporation of unnatural nucleotides and methods of use in vivo thereof” (THE SCRIPPS RESEARCH INSTITUTE, priority 2017, dated 2025):
“And” between values parts separate entries of the source, which are not always exact repeats. Identical values can stand only once.

Experiments:
[1] = test system: semi-synthetic organism (SSO) (strain YZ3); experiment: Replication and UBP retention in vivo in the semi-synthetic organism (streptavidin biotin shift, PAGE), Example 1; format: cell-based, Escherichia coli; conditions: for UBP retention: context 1, dNaMTP 125 μM; for UBP retention in vivo, in words: dTPT3TP analog paired with dNaMTP, discussion; for UBP retention (%): Table 5, dTPT3TP 25 μM
Experimental: All bacteria were cultured in 100 μL of liquid 2×YT media (casein peptone 16 g/L, yeast extract 10 g/L, NaCl 5 g/L) supplemented with potassium phosphate (50 mM, pH 7) in 96-well microwell plates. When noted, antibiotics were used at the following concentrations: chloramphenicol, 5 μg/mL; ampicillin, 100 μg/mL. Cell growth, indicated as OD600, was measured using a Perkin Elmer EnVision 2103 Multilabel Reader with a 590/20 nm filter. Unless otherwise stated, molecular biology reagents were purchased from New England Biolabs (Ipswich, MA) and were used according to the manufacturer's protocols. As necessary, purification of nucleic acids was accomplished by micro-elution columns (Zymo Research Corp; Irvine, CA). All natural oligonucleotides were purchased from IDT (San Diego, CA), and oligonucleotides containing dNaM were synthesized by Biosearch Technologies (Petaluma, CA) with purification by reverse phase cartridge. Unnatural nucleotide triphosphates were prepared, and confirmed by MALDI-TOF and UV/Vis.
Plasmids containing the dNaM-dTPT3 UBP were prepared and used to transform the semi-synthetic organism (SSO). To create a template for in vivo replication assays, Golden Gate assembly was used to construct a derivative of the pUC19 plasmid in which a single dNaM-dTPT3 UBP was embedded within the TK1 sequence ([…]; […]), a context within which the UBP is well replicated in the SSO. Plasmids were then used to transform the SSO (strain YZ3). Following transformation, the SSO was allowed to recover at 37° C. for 1 h in media containing dNaMTP (125 μM) and dTPT3TP (25 μM). Cells were pelleted by centrifugation, resuspended in fresh media lacking unnatural triphosphates, split into 100-μL aliquots and then used to inoculate cultures containing different pairs of unnatural triphosphates at the specified concentrations. When the cell density reached an OD600 of ˜0.7, cells were pelleted and plasmids were recovered and PCR amplified with d5SICSTP and a biotinylated analog of dNaMTP, and UBP retention was determined by comparing the intensity of the streptavidin shifted and unshifted bands via PAGE.

[2] = PCR amplification in vitro (SAR named in the discussion); format: biochemical; conditions: paired with any analog
SSO (strain YZ3) = experiment: UBP retention in vivo in the SSO (biotin shift assay), Example 2; format: cell-based, Escherichia coli
Text: Thus, to evaluate the UBPs in the in vivo environment of the SSO, Golden Gate assembly was used to construct four derivatives of the pUC19 plasmid containing a single dNaM-dTPT3 UBP, but where it was flanked by one of four different sequence contexts, context 1-4. These sequence contexts show decreasing UBP retention with dNaM-dTPT3. Plasmids were used to transform the SSO (strain YZ3), which was allowed to recover briefly in media containing dTPT3TP and either dNaMTP, dPTMOTP, or dMTMOTP. After transfer to fresh media containing the same triphosphates and ampicillin (to select for plasmid retention), the SSO was allowed to grow to an OD600 of ˜0.7, at which time plasmids were recovered and analyzed for UBP retention the same biotin shift assay described above. FIG. 9 exemplifies the results in vivo.

[3] = target: T1, Klenow fragment of E. coli DNA polymerase I (Escherichia coli, UniProt P00582); experiment: Steady-state kinetic assay of unnatural triphosphate insertion; format: biochemical; conditions: insertion of dXTP opposite dY = dTPT3 in template
T1 construct: the Klenow fragment of E. coli DNA polymerase I

OneTaq DNA polymerase = experiment: PCR amplification fidelity of DNA containing a single UBP (UBP retention in vitro); format: biochemical; conditions: with dTPT3TP, 20 cycles
Text: The fidelity with which DNA containing a single UBP is PCR amplified was explored using OneTaq DNA polymerase. To quantify fidelity, templates containing the dNaM-dTPT3 UBP were amplified with dTPT3TP and dNaMTP, dPTMOTP or dMTMOTP. Two templates were used where the UBP was flanked by different sequence contexts; T1, where X (X=NaM, or after the first round of replication, NaM, PTNO, or MTMO) is flanked by a 5′ dA and a 3′ dT, and which with X=dNaM is well replicated in the SSO, and T2 where X is flanked by a 5′ dC and a 3′ dG, and which with X=dNaM is poorly replicated in the SSO. DNA was amplified for 20 cycles with extension times of either 1 min or 45 s, with the shorter times used to probe amplification efficiency. After amplification, the DNA was purified and UBP retention was characterized via a second PCR amplification using OneTaq and DeepVent DNA polymerases and a biotinylated analog of dNaMTP, whose product was analyzed by PAGE.

[4] = context d(ANaMT) / AXT, dTPT3TP 25 μM, triphosphate 5 μM
[5] = context d(ANaMT) / AXT, dTPT3TP 25 μM, triphosphate 10 μM
[6] = context d(ANaMT), with dTPT3TP, triphosphate 25 μM
[7] = context d(ANaMT), with dTPT3TP, triphosphate 150 μM
[8] = context d(CNaMC), with dTPT3TP, triphosphate 25 μM
[9] = context d(CNaMC), with dTPT3TP, triphosphate 150 μM
[10] = context d(CNaMG), with dTPT3TP, triphosphate 25 μM
[11] = context d(CNaMG), with dTPT3TP, triphosphate 150 μM
[12] = template T1 (5′ dA, 3′ dT), extension time 45 s
[13] = template T1 (5′ dA, 3′ dT), extension time 1 min
[14] = template T2 (5′ dC, 3′ dG), extension time 45 s
[15] = template T2 (5′ dC, 3′ dG), extension time 1 min

T1 sequence (P00582 324-928): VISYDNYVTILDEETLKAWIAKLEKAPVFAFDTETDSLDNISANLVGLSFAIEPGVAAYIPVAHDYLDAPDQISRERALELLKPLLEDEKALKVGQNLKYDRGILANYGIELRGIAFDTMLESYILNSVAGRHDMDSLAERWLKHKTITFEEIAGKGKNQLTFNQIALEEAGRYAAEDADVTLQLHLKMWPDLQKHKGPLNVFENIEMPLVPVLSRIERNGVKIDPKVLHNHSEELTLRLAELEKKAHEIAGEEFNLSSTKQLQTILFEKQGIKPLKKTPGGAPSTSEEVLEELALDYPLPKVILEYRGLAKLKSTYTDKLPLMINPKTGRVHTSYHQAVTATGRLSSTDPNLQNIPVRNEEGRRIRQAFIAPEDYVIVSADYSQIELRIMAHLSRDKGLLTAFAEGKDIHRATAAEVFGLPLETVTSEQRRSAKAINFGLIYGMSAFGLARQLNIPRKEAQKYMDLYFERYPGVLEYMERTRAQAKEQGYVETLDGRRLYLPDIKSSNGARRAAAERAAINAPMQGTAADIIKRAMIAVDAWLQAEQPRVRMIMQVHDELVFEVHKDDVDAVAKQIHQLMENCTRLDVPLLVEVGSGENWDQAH

Row | SMILES | UBP retention in vivo, in words [1] | PCR amplification [2] | UBP retention (SSO (strain YZ3); [4]) | UBP retention (SSO (strain YZ3); [5]) | UBP retention (SSO (strain YZ3); [6]) | UBP retention (SSO (strain YZ3); [7]) | UBP retention (SSO (strain YZ3); [8]) | UBP retention (SSO (strain YZ3); [9]) | UBP retention (SSO (strain YZ3); [10]) | UBP retention (SSO (strain YZ3); [11]) | Km [3] | kcat [3] | UBP retention after PCR amplification (OneTaq DNA polymerase; [12]) | UBP retention after PCR amplification (OneTaq DNA polymerase; [13]) | UBP retention after PCR amplification (OneTaq DNA polymerase; [14]) | UBP retention after PCR amplification (OneTaq DNA polymerase; [15]) | also measured
1 | O=c1c2ccccc2ccn1C1CC(O)C(COP(=O)(O)OP(=O)(O)OP(=O)(O)O)O1 (centres unmarked) [dICSTP] | reasonable retention in vivo | do not support PCR amplification | – | – | – | – | – | – | – | – | – | – | – | – | – | – | UBP retention ([1]; dTPT3TP analog 10 μM): significant retention; UBP retention in vivo, in words ([1]; listed as dICS): reasonably well, but only at low concentration
2 | COc1cc2sccc2cc1[C@H]1C[C@H](O)[C@@H](COP(=O)(O)OP(=O)(O)OP(=O)(O)O)O1 [dPTMOTP] | – | – | 77% and 77±22% | 92% and 92±6% | 99% | 98% | 55% | 97% | 2% | 7% | 0.08 µM | 0.323 s⁻¹ and 0.323 ± 0.02 s⁻¹ | 90% | 98% | 74% | 78% | toxicity to cells (SSO (strain YZ3); SSO cells, concentration matrix 5-150 μM, context CXC): not toxic to cells; effective concentration can be dropped to (SSO (strain YZ3); context CXC (difficult to replicate sequences)): 100 µM; UBP retention (Avg) (SSO (strain YZ3); context CXC, dPTMOTP 5 μM, dTPT3TP 5 μM): 7%; UBP retention (Avg) (SSO (strain YZ3); context CXC, dPTMOTP 5 μM, dTPT3TP 25 μM): 7%; UBP retention (Avg) (SSO (strain YZ3); context CXC, dPTMOTP 5 μM, dTPT3TP 100 μM): 10%; UBP retention (Avg) (SSO (strain YZ3); context CXC, dPTMOTP 5 μM, dTPT3TP 150 μM): 7%; UBP retention (Avg) (SSO (strain YZ3); context CXC, dPTMOTP 25 μM, dTPT3TP 5 μM): 18%; UBP retention (Avg) (SSO (strain YZ3); context CXC, dPTMOTP 25 μM, dTPT3TP 25 μM): 59%; UBP retention (Avg) (SSO (strain YZ3); context CXC, dPTMOTP 25 μM, dTPT3TP 100 μM): 63%; UBP retention (Avg) (SSO (strain YZ3); context CXC, dPTMOTP 25 μM, dTPT3TP 150 μM): 47%; UBP retention (Avg) (SSO (strain YZ3); context CXC, dPTMOTP 100 μM, dTPT3TP 5 μM): 58%; UBP retention (Avg) (SSO (strain YZ3); context CXC, dPTMOTP 100 μM, dTPT3TP 25 μM): 89%; UBP retention (Avg) (SSO (strain YZ3); context CXC, dPTMOTP 100 μM, dTPT3TP 100 μM): 93%; UBP retention (Avg) (SSO (strain YZ3); context CXC, dPTMOTP 100 μM, dTPT3TP 150 μM): 66%; UBP retention (Avg) (SSO (strain YZ3); context CXC, dPTMOTP 150 μM, dTPT3TP 5 μM): 61%; UBP retention (Avg) (SSO (strain YZ3); context CXC, dPTMOTP 150 μM, dTPT3TP 25 μM): 103%; UBP retention (Avg) (SSO (strain YZ3); context CXC, dPTMOTP 150 μM, dTPT3TP 100 μM): 90%; UBP retention (Avg) (SSO (strain YZ3); context CXC, dPTMOTP 150 μM, dTPT3TP 150 μM): 64%
3 | O=c1c2cccnc2ccn1C1CC(O)C(COP(=O)(O)OP(=O)(O)OP(=O)(O)O)O1 (centres unmarked) [dNICS] | supports UBP retention reasonably well | do not support PCR amplification | – | – | – | – | – | – | – | – | – | – | – | – | – | – | UBP retention ([1]; dTPT3TP analog 125 μM): significant UBP retention; UBP retention in vivo, in words ([1]; listed as dNICSTP): reasonable retention in vivo
4 | COc1cc2ccsc2cc1C1CC(O)C(COP(=O)(O)OP(=O)(O)OP(=O)(O)O)O1 (centres unmarked) [dMTMOTP] | – | – | 59% and 59±24% | 80% and 80±11% | 96% | 99% | 19% | 62% | 5% | 8% | 0.22 µM | 0.142 s⁻¹ and 0.142 ± 0.0283 s⁻¹ | 84% | 80% | 58% | 58% | –
5 | COc1cc2ccccc2cc1[C@H]1C[C@H](O)[C@@H](COP(=O)(O)OP(=O)(O)OP(=O)(O)O)O1 [dNaMTP, reference compound] | – | – | 17% and 17±21% | 29% and 29±11% | 82% | 98% | 7% | 44% | 5% | 6% | 0.09 µM | 0.178 s⁻¹ | 95% | 100% | 85% | 86% | UBP retention (%) ([1]; sequence context 1 (AXT), dNaMTP or dCNMOTP 25 μM): 85%; UBP retention (%) ([1]; sequence context 1 (AXT), dNaMTP or dCNMOTP 25 μM, listed as dNaM): 85 ± 10%; UBP retention (%) ([1]; sequence context 1 (AXT), dNaMTP or dCNMOTP 125 μM): 99 ± 3%; UBP retention (%) ([1]; sequence context 2 (AXA), dNaMTP or dCNMOTP 25 μM): 36%; UBP retention (%) ([1]; sequence context 2 (AXA), dNaMTP or dCNMOTP 25 μM, listed as dNaM): 36 ± 29%; UBP retention (%) ([1]; sequence context 2 (AXA), dNaMTP or dCNMOTP 125 μM): 73%; UBP retention (%) ([1]; sequence context 2 (AXA), dNaMTP or dCNMOTP 125 μM, listed as dNaM): 73 ± 21%; UBP retention (%) ([1]; sequence context 3 (CXC), dNaMTP or dCNMOTP 25 μM): no retention; UBP retention (%) ([1]; sequence context 3 (CXC), dNaMTP or dCNMOTP 25 μM, listed as dNaM): 7 ± 2%; UBP retention (%) ([1]; sequence context 3 (CXC), dNaMTP or dCNMOTP 125 μM): 26%; UBP retention (%) ([1]; sequence context 3 (CXC), dNaMTP or dCNMOTP 125 μM, listed as dNaM): 26 ± 16%; UBP retention (%) ([1]; sequence context 4 (CXG), dNaMTP or dCNMOTP 25 μM): not retained significantly; UBP retention (%) ([1]; sequence context 4 (CXG), dNaMTP or dCNMOTP 25 μM, listed as dNaM): 9 ± 1%; UBP retention (%) ([1]; sequence context 4 (CXG), dNaMTP or dCNMOTP 125 μM): not retained significantly; UBP retention (%) ([1]; sequence context 4 (CXG), dNaMTP or dCNMOTP 125 μM, listed as dNaM): 13 ± 2%
